Results reported in publication PMC8187479, “Sugar phosphate activation of the stress sensor eIF2B” (Nature Communications, 2021).

Biological target: T1, eIF2Bα (Homo sapiens, UniProt Q14232)
T1 construct: made in house; host or cells: E. coli BL21(DE3)
T1 sequence (Q14232 1-305): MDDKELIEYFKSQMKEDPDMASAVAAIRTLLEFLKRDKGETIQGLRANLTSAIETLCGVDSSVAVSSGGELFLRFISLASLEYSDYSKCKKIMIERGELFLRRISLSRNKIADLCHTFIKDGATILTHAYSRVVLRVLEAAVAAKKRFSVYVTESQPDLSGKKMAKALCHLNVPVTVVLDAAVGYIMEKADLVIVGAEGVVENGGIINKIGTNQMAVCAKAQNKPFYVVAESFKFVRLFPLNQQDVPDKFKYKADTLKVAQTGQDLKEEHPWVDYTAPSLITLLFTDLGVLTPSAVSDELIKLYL
Test: MIDAS (mass spectrometry integrated with equilibrium dialysis) metabolite binding screen
Conditions: MIDAS metabolite binding screen with eIF2Bα; sheet "eIF2Ba"
Description: Metabolites were combined into four defined screening pools. […] To the reverse side, 300 μL of 50 μM per metabolite pool was aliquoted and sealed (metabolite chamber). Loaded dialysis plates were placed in the dark at 4 °C on a rotating shaker (120 rpm) and incubated for 40 h. Post-dialysis, metabolites were isolated from each chamber by cold methanol extraction. Each sample was analyzed in technical triplicate by FIA-MS on a SCIEX X500R QTOF MS with interspersed blanks injections. The input metabolite pools were assayed at the beginning, middle, and end of each MS method batch for QC and normalization.
MIDAS FIA-MS spectra were processed in SCIEX OS 1.6 software to determine metabolite abundances by integrating the mean area under the curve for each extracted ion chromatogram. For each dialysis replicate, log2(fold change) for each metabolite was calculated as the difference between the log2 abundance in the protein chamber and metabolite chamber. For each technical triplicate, up to one outlier was removed using a z-score cutoff of five (<0.1% of observations). The corrected technical replicates were collapsed to one mean fold-change summary per protein-metabolite pair. To remove fold-change variation that was not specific to a given metabolite-protein pair, the first three principal components of the total screening dataset were removed on a per metabolite pool basis by subtracting the projection of the first 3 principal components, creating log2(corrected fold change). Protein-metabolite z-scores were determined by comparing the target protein-metabolite log2(corrected fold change) to a no-signal model for that metabolite using measures of the central tendency (median) and standard deviation (extrapolated from the 25–75% quantiles), which are robust to the signals in the tails of a metabolite’s fold-change distribution. Z-scores were false-discovery rate controlled using Storey’s q-value (qvalue, R) and protein-metabolite interactions with q-values < 0.1 were considered significant.

In order of falling “log2(corrected fold change)” value:
1. Nc1ncnc2c1ncn2[C@@H]1O[C@H](CO)[C@@H](O)[C@H]1O [Adenosine]  0.2973
2. O=P(O)(O)OCC1OC(OP(=O)(O)OP(=O)(O)O)C(O)C1O [5-Phospho-D-ribose 1-diphosphate]  0.1645
3. Cc1cn([C@@H]2O[C@H](CO)[C@@H](O)[C@H]2O)c(=O)[nH]c1=O [5-Methyluridine]  0.07915
4. CCCC(=O)SCCNC(=O)CCNC(=O)[C@H](O)C(C)(C)COP(=O)(O)OP(=O)(O)OC[C@H]1O[C@@H](n2cnc3c(N)ncnc32)[C@H](O)[C@@H]1OP(=O)(O)O [Butyryl coenzyme A]  0.07019
5. Cc1ncc(CO)c(C(=O)O)c1O [4-Pyridoxic acid]  0.06772
6. CC(C)(COP(=O)(O)OP(=O)(O)OC[C@H]1O[C@@H](n2cnc3c(N)ncnc32)[C@H](O)[C@@H]1OP(=O)(O)O)[C@@H](O)C(=O)NCCC(=O)NCCS [Coenzyme A]  0.05668
7. Nc1ncnc2c1ncn2[C@@H]1O[C@H](COP(=O)(O)OP(=O)(O)OP(=O)(O)O)[C@@H](O)[C@H]1O [Adenosine triphosphate]  0.05437
8. CC(=O)NCC(=O)O [Acetylamino-acetic acid]  0.03921
9. NCCCC(=O)O [4-Aminobutanoate]  0.0213
10. CN1c2c(nc(N)[nH]c2=O)NCC1CNc1ccc(C(=O)N[C@@H](CCC(=O)O)C(=O)O)cc1 (stereo partly shown) [5-Methyltetrahydrofolic acid]  0.02128
11. O=C(O)Cc1cnc[nH]1 [4-Imidazoleacetic acid]  0.01796
12. O=C1O[C@H]([C@@H](O)CO)C(O)=C1O [Ascorbate]  0.01654
13. O=C(O)[C@H]1C[C@@H](O)CN1 [Cis-4-Hydroxy-D-proline]  0.008003
14. OC[C@@H](O)[C@@H](O)[C@@H](O)CO [Adonitol]  0.006339
15. Nc1ccn([C@@H]2O[C@H](COP(=O)(O)OP(=O)(O)OCC(O)CO)[C@@H](O)[C@H]2O)c(=O)n1 (stereo partly shown) [CDP-Glycerol]  0.002705
16. NCCC(=O)O [Beta-alanine]  0.0004222
17. N[C@@H](CCCCNC(=O)CCCC[C@@H]1SC[C@@H]2NC(=O)N[C@@H]21)C(=O)O [Biocytin]  -0.00281
18. Nc1ncnc2c1ncn2[C@@H]1O[C@H](COP(=O)(O)OS(=O)(=O)O)[C@@H](OP(=O)(O)O)[C@H]1O [3-Phosphoadenosine 5-phosphosulfate]  -0.003179
19. O=C(O)CC(O)CC(=O)O [3-hydroxypentanedioic acid]  -0.0058
20. CC(O)(CC(=O)O)C(=O)O (stereo not shown) [Citramalate]  -0.0058
21. O=C(O)CNC(=O)Cc1ccc(O)cc1 [4-Hydroxyphenylacetylglycine]  -0.008576
22. NCCOP(=O)(O)OP(=O)(O)OC[C@H]1O[C@@H](n2ccc(N)nc2=O)[C@H](O)[C@@H]1O [CDP-ethanolamine]  -0.00979
23. O=C(O)CC(O)(CC(=O)O)C(=O)O [Citric acid]  -0.01609
24. C[C@H](O)[C@@H](O)[C@@H](O)[C@H](O)C(=O)O [6-Deoxy-L-galactonic acid]  -0.02256
25. CC(=O)CC(=O)CCC(=O)O [4,6-Dioxoheptanoic acid]  -0.02657
26. Cn1cncc1C[C@H](NC(=O)CCN)C(=O)O [Anserine]  -0.02715
27. N[C@@H](C[C@@H](O)C(=O)O)C(=O)O [(4R)-4-Hydroxy-L-glutamic acid]  -0.03114
28. CC(C)C(=O)C(=O)O [3-methyl-2-oxobutyrate]  -0.0499
29. Nc1ncnc2c1ncn2[C@@H]1O[C@H](COP(=O)(O)OP(=O)(O)NP(=O)(O)O)[C@@H](O)[C@H]1O [Adenyl imidodiphosphate]  -0.08962
30. C[N+](C)(C)CCOP(=O)([O-])OC[C@H](O)CO [Choline glycerophosphate]  -0.09086

Same assay, conditions: MIDAS screen, sheet eIF2Ba; metabolites screened in pools 1-4; p-value and q-value given

In order of rising “log2(corrected fold change)” value:
1. C/C=C/C(=O)SCCNC(=O)CCNC(=O)[C@H](O)C(C)(C)COP(=O)(O)OP(=O)(O)OC[C@H]1O[C@@H](n2cnc3c(N)ncnc32)[C@H](O)[C@@H]1OP(=O)(O)O [Crotonoyl coenzyme A]  -2.153
2. N[C@@H](Cc1c[nH]c2ccc(O)cc12)C(=O)O [5-Hydroxy-L-tryptophan]  -0.8537
3. Nc1ncnc2[nH]cnc12 [Adenine]  -0.2309
4. O=C(O)C(=O)CC(O)C(=O)O (stereo not shown) [4-Hydroxy-2-oxoglutaric acid]  -0.1985
5. Nc1c(C(=O)O)c2nc3c(C(=O)O)cccc3oc-2cc1=O [Cinnabarinic Acid]  -0.1918
6. C[N+](C)(C)CCO [Choline]  -0.1774
7. O=C(O)[C@H](O)[C@@H](O)[C@H](O)[C@H](O)COP(=O)(O)O [6-Phosphogluconic acid]  -0.1601
8. C[N+](C)(C)CC=O [Betaine aldehyde]  -0.1426
9. O=C(O)C=Cc1c[nH]cn1 [4-Imidazoleacrylic acid]  -0.125
10. O=C(O)C(=O)CS(=O)(=O)O [3-Sulfopyruvic acid]  -0.112
11. C[C@@H](O)CC(=O)O [(R)-3-Hydroxybutyric acid]  -0.1099
12. CC(=O)SCCNC(=O)CCNC(=O)[C@H](O)C(C)(C)COP(=O)(O)OP(=O)(O)OC[C@H]1O[C@@H](n2cnc3c(N)ncnc32)[C@H](O)[C@@H]1OP(=O)(O)O [Acetyl coenzyme A]  -0.09022
13. C[N+](C)(C)CC=O [Betaine aldehyde hydrate]  -0.08887
14. CC(=O)OCC[N+](C)(C)C [Acetylcholine]  -0.07879
15. O=C(O)Cc1ccc(O)cc1 [4-Hydroxyphenylacetic acid]  -0.07366
16. CC(=O)CC(=O)O [Acetoacetate]  -0.05529
17. CC(C)CC(=O)C(=O)O [4-Methyl-2-oxovaleric acid]  -0.05419
18. Nc1ccccc1C(=O)O [Anthranilate]  -0.04243
19. C[N+](C)(C)CC(O)CC(=O)[O-] (stereo not shown) [Carnitine]  -0.03799
20. O=C(O)C[C@H](Nc1ncnc2c1ncn2[C@@H]1O[C@H](COP(=O)(O)O)[C@@H](O)[C@H]1O)C(=O)O [Adenylosuccinic acid]  -0.03472
21. COc1ccc2[nH]cc(CC(=O)O)c2c1 [5-Methoxy-3-indoleacetic acid]  -0.03075
22. NC(=O)c1ncn([C@@H]2O[C@H](CO)[C@@H](O)[C@H]2O)c1N [AICAR]  0.005355
23. O=C(O)CCCc1ccccc1 [4-Phenylbutanoic acid]  0.03839
24. CN(CC(=O)O)C(=N)N [Creatine]  0.06671
25. C[C@H](CO)C(=O)O [(R)-Hydroxyisobutyrate]  0.07137
26. C[C@H](O)CC(=O)O [(S)-3-Hydroxybutyric acid]  0.07137
27. C[C@@H](CO)C(=O)O [(S)-Hydroxyisobutyrate]  0.07137
28. NC(=O)NCCC(=O)O [3-Ureidopropionic acid]  0.07649
29. CSCCC(=O)C(=O)O [4-Methylthio-2-oxobutanoic acid]  0.0884
30. C/C(=C/C(=O)O)C(=O)O [Citraconic acid]  0.0972
31. O=C(O)c1ccc(O)cc1 [4-Hydroxybenzoic acid]  0.1295
32. NCCCCN=C(N)N [Agmatine]  0.1363
33. NCCCCCN [Cadaverine]  0.2219
34. C[N+](C)(C)CC(=O)O [Betaine]  0.2268
35. N=C(N)NCCCC(=O)O [4-Guanidinobutyric acid]  0.2552
36. COc1ccc2[nH]cc(CCN)c2c1 [5-Methoxytryptamine]  0.274
37. CC(=O)CC(=O)SCCNC(=O)CCNC(=O)[C@H](O)C(C)(C)COP(=O)(O)OP(=O)(O)OC[C@H]1O[C@@H](n2cnc3c(N)ncnc32)[C@H](O)[C@@H]1OP(=O)(O)O [Acetoacetyl coenzyme A]  0.4297
